The record followed here is patent US11174253B2, “Compound and pharmaceutical composition containing the same” (ALPHALA CO., LTD., priority 2017, dated 2021).

What all share (type): cell-based
The test system of assay [1] is SW480 colon adenocarcinoma cell line. In words: MTS cell viability assay (NCI-60 methodology), GI50/LC50, SW480. To be noted: Homo sapiens, 48 h, SW480 cells, 2 days incubation with compound. The method in brief: (§1)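 Cells were plated 24 h before treatment, and a time-zero plate was read by MTS. Five 2-fold dilutions plus DMSO were then added for 48 h, and viability was measured by MTS. GI50 is from [(Ti−Tz)/(C−Tz)]×100=50 and LC50 from [(Ti−Tz)/Tz]×100=−50.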

Assay [2] has as its system Hep3B hepatocellular carcinoma cell line. The assay is described as follows: MTS cell viability assay (NCI-60 methodology), GI50/LC50, Hep3B. The settings on record: Homo sapiens, 48 h, Hep3B cells, 2 days incubation with compound. In outline:
as §1

The subject of assay [3] is hepatocellular carcinoma cell line Hep3B. The assay is described as follows: Growth inhibition of Hep3B cells, 48 hr treatment, Hoechst 33342 nucleus count (GE InCell 2200). The settings on record: Homo sapiens, Table 6, ratio of number of tumor cells treated with 10 μM compound to non-treated cells. The method in brief:
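Compound exposure lasted 48 hr at 37° C, 5% CO2. Surviving nuclei were counted after Hoechst 33342 staining, and survival was expressed as the treated/non-treated cell number ratio, including the ratio at 10 μM compound.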

Assay [4] concerns NCI-H460 human lung cancer cell line. In words: MTS cell viability assay (NCI-60 methodology), GI50/LC50, NCI-H460. The settings on record: 48 h, NCI-H460 cells, 2 days incubation with compound. In outline:
as §1

`CCOc1ccc(-c2nc(NC(=O)c3ccc([N+](=O)[O-])s3)sc2Cc2ccccc2)cc1` [Compound 6-34, N-(5-benzyl-4-(4-ethoxyphenyl)thiazol-2-yl)-5-nitrothiophene-2-carboxamide]: the results for the GI50 in assay [1], in assay [2] and in assay [4] were 2.51 µM, 1.01 µM and 1.4 µM, respectively. Also, the LC50 in assay [2] is 7.53 µM. Also, the viability at 10 µM in assay [3] stood at 44%.

On to `Cc1ccc(-c2nc(NC(=O)c3ccc([N+](=O)[O-])s3)sc2-c2cc(C(F)(F)F)cc(C(F)(F)F)c2)cc1` [Compound 6-5, N-(5-(3,5-bis(trifluoromethyl)phenyl)-4-(p-tolyl)thiazol-2-yl)-5-nitrothiophene-2-carboxamide], for which, in assay [1], the GI50 amounted to 1.2 µM and the LC50 (NCI-60 lethal concentration, 50% net cell loss vs time zero) is 1.41 µM. In assay [2], the GI50 worked out at 0.95 µM and the LC50 is 1.08 µM. Also, the viability at 10 µM in assay [3] was determined as 46%. In assay [4], the GI50 was 1.12 µM and the LC50 (concentration giving 50% net cell loss versus time zero, NCI-60 definition) worked out at 1.63 µM.
